US20130029928A1 (priority 2010, published 2013)
Read-outs that look alike come from different tables or passages of the source.

Test: Phase I study CXR1002-001: plasma pharmacokinetics (LC-MS/MS)
Format: in vivo, human
Conditions: for concentration at 168 h: 168 hr (Day 8); for concentration at 504 h: 504 hr (Day 22); for concentration at 840 h: 840 hr (Day 36); for concentration at 696 h: 696 hr (Day 29)
From the text: PK samples, PD (fasting) samples, blood glucose, and blood triglyceride samples, were taken over a 6-week period.
Dose limiting toxicity (DLT) will be based on the toxicity assessments over the first 3-week period of the repeat dosing schedule. PK samples (single blood sample) were taken on the following basis: • Every 6 weeks during the repeat dosing phase • If dosing is interrupted or stopped, samples will be taken at intervals according to patient convenience • PK sampling for safety evaluation may take place at any time, as clinically indicated
Plasma samples were collected after the single 50 mg dose at the following timepoints: Pre-dose, and then 0.25, 0.5, 0.75, 1, 1.5, 2, 3, 4, 6, 24, 48, and 72 hours after administration and then once weekly at weeks 2, 3, 4, 5, and 6 (days 8, 15, 22, 29, and 36). For patients treated with the weekly repeat dose, plasma samples were collected at the following timepoints: Pre-dose and then 2, 3, 4 and 24 hours after administration for a total of 6 weeks. Thereafter a single sample was collected every 6 weeks for monitoring of exposure during long term treatment. Plasma samples were processed at site and stored at −80° C. prior to batch shipment to the analytical laboratory.

[1] = female, human, plasma, oral, Female, plasma, read-out: Concentration
[2] = human, plasma, oral, 50 mg, Patient 001 Dose 50 mg
[3] = human, plasma, oral, 50 mg, Patient 001 Dose 50 mg, read-out: Concentration
[4] = human, plasma, oral, 50 mg, Patient 002 Dose 50 mg
[5] = human, plasma, oral, 50 mg, Patient 002 Dose 50 mg, read-out: Concentration
[6] = human, plasma, oral, 50 mg, Patient 003 Dose 50 mg
[7] = human, plasma, oral, 50 mg, Patient 003 Dose 50 mg, read-out: Concentration
[8] = human, plasma, oral, 50 mg, Patient 004 Dose 50 mg, read-out: Concentration
[9] = human, plasma, oral, 100 mg, Patient 005 Dose 100 mg, read-out: Concentration

O=C(O)C(F)(F)C(F)(F)C(F)(F)C(F)(F)C(F)(F)C(F)(F)C(F)(F)F [CXR1002]
maximal plasma level recorded (1200 mg weekly dose over a 5 week period, one patient): 1530 µM
Concentration (Patient 032, 950 mg, person, plasma, 0 hr (pre-dose)): BLQ
oral bioavailability (clinical trials): orally bioavailable
concentration at 168 h [1]: 146 µM
concentration at 170 h [1]: 276 µM
concentration at 171 h [1]: 253 µM
concentration at 172 h [1]: 248 µM
concentration at 192 h (female, human, plasma, oral, Female, plasma, 192 hr (Day 9), read-out: Concentration): 246 µM
concentration at 504 h [1]: 333 µM
concentration at 506 h [1]: 427 µM
concentration at 507 h [1]: 412 µM
concentration at 528 h (female, human, plasma, oral, Female, plasma, 528 hr (Day 23), read-out: Concentration): 405 µM
concentration at 840 h [1]: 434 µM
concentration at 842 h [1]: 461 µM
concentration at 843 h [1]: 457 µM
concentration at 844 h (female, human, plasma, oral, Female, plasma, 844 hr, read-out: Concentration): 482 µM
concentration at 864 h (female, human, plasma, oral, Female, plasma, 864 hr (Day 37), read-out: Concentration): 526 µM
concentration at 0 h (human, plasma, oral, 50 mg, Patient 001 Dose 50 mg, 0 hr): 0 µM
concentration at 0.25 h [2]: 0.35 µM
concentration at 0.5 hr (human, plasma, oral, 50 mg, Patient 001 Dose 50 mg, 0.5 hr): 1.11 µM
concentration at 0.75 hr (human, plasma, oral, 50 mg, Patient 001 Dose 50 mg, 0.75 hr): 9.17 µM
concentration at 1 hr (human, plasma, oral, 50 mg, Patient 001 Dose 50 mg, 1 hr): 14.4 µM
concentration at 1.5 h [2]: 25.7 µM
concentration at 2 h (human, plasma, oral, 50 mg, Patient 001 Dose 50 mg, 2 hr, read-out: Concentration): 22.5 µM
concentration at 3 h [3]: 20.8 µM
concentration at 6 h [2]: 14.7 µM
concentration at 24 h (human, plasma, oral, 50 mg, Patient 001 Dose 50 mg, 24 hr, read-out: Concentration): 13.8 µM
concentration at 48 h [2]: 12.8 µM
concentration at 72 hr (human, plasma, oral, 50 mg, Patient 001 Dose 50 mg, 72 hr): 9.7 µM
concentration at 192 hr (human, plasma, oral, 50 mg, Patient 001 Dose 50 mg, 192 hr (Day 8), read-out: Concentration): 8.54 µM
concentration at 360 hr (human, plasma, oral, 50 mg, Patient 001 Dose 50 mg, 360 hr (Day 15), read-out: Concentration): 8.63 µM
concentration at 528 h (human, plasma, oral, 50 mg, Patient 001 Dose 50 mg, 528 hr (Day 22), read-out: Concentration): 11.6 µM
concentration at 696 h [3]: 10.2 µM
concentration at 864 h (human, plasma, oral, 50 mg, Patient 001 Dose 50 mg, 864 hr (Day 36), read-out: Concentration): 8.89 µM
concentration at 144 day (human, plasma, oral, 50 mg, Patient 001 Dose 50 mg, Day 144): 226 µM
concentration at 179 day (human, plasma, oral, 50 mg, Patient 001 Dose 50 mg, Day 179): 250 µM
concentration at 227 day (human, plasma, oral, 50 mg, Patient 001 Dose 50 mg, Day 227): 308 µM
concentration at 268 day (human, plasma, oral, 50 mg, Patient 001 Dose 50 mg, Day 268): 268 µM
concentration at 0 h (human, plasma, oral, 50 mg, Patient 002 Dose 50 mg, 0 hr): 0 µM
concentration at 0.25 h [4]: 3.06 µM
concentration at 0.5 h (human, plasma, oral, 50 mg, Patient 002 Dose 50 mg, 0.5 hr): 7.62 µM
concentration at 0.75 h (human, plasma, oral, 50 mg, Patient 002 Dose 50 mg, 0.75 hr): 8.39 µM
concentration at 1 h (human, plasma, oral, 50 mg, Patient 002 Dose 50 mg, 1 hr): 8.55 µM
concentration at 1.5 h [4]: 29.8 µM
concentration at 3 h [5]: 22.8 µM
concentration at 4 h (human, plasma, oral, 50 mg, Patient 002 Dose 50 mg, 4 hr, read-out: Concentration): 14.5 µM
concentration at 6 h [4]: 17.5 µM
concentration at 24 h (human, plasma, oral, 50 mg, Patient 002 Dose 50 mg, 24 hr, read-out: Concentration): 14.3 µM
concentration at 48 h [4]: 13.3 µM
concentration at 72 h (human, plasma, oral, 50 mg, Patient 002 Dose 50 mg, 72 hr): 15.6 µM
concentration at 192 h (human, plasma, oral, 50 mg, Patient 002 Dose 50 mg, 192 hr (Day 8), read-out: Concentration): 17.2 µM
concentration at 360 h (human, plasma, oral, 50 mg, Patient 002 Dose 50 mg, 360 hr (Day 15), read-out: Concentration): 18.6 µM
concentration at 528 h (human, plasma, oral, 50 mg, Patient 002 Dose 50 mg, 528 hr (Day 22), read-out: Concentration): 21.5 µM
concentration at 696 h [5]: 21 µM
concentration at 864 h (human, plasma, oral, 50 mg, Patient 002 Dose 50 mg, 864 hr (Day 36), read-out: Concentration): 20.1 µM
concentration at 0 h (human, plasma, oral, 50 mg, Patient 003 Dose 50 mg, 0 hr): 0.14 µM
concentration at 0.25 h [6]: 1.08 µM
concentration at 0.5 h (human, plasma, oral, 50 mg, Patient 003 Dose 50 mg, 0.5 hr): 11.3 µM
concentration at 0.75 h (human, plasma, oral, 50 mg, Patient 003 Dose 50 mg, 0.75 hr): 17.1 µM
concentration at 1 h (human, plasma, oral, 50 mg, Patient 003 Dose 50 mg, 1 hr): 20.7 µM
concentration at 1.5 h [6]: 24.6 µM
concentration at 2 h (human, plasma, oral, 50 mg, Patient 003 Dose 50 mg, 2 hr, read-out: Concentration): 24.5 µM
concentration at 3 h [7]: 21.2 µM
concentration at 4 h (human, plasma, oral, 50 mg, Patient 003 Dose 50 mg, 4 hr, read-out: Concentration): 18 µM
concentration at 24 h (human, plasma, oral, 50 mg, Patient 003 Dose 50 mg, 24 hr, read-out: Concentration): 19.5 µM
concentration at 48 h [6]: 18.1 µM
concentration at 72 h (human, plasma, oral, 50 mg, Patient 003 Dose 50 mg, 72 hr): 18.4 µM
concentration at 192 h (human, plasma, oral, 50 mg, Patient 003 Dose 50 mg, 192 hr (Day 8), read-out: Concentration): 8.6 µM
concentration at 360 h (human, plasma, oral, 50 mg, Patient 003 Dose 50 mg, 360 hr (Day 15), read-out: Concentration): 7.2 µM
concentration at 528 h (human, plasma, oral, 50 mg, Patient 003 Dose 50 mg, 528 hr (Day 22), read-out: Concentration): 6.5 µM
concentration at 696 h [7]: 5 µM
concentration at 864 h (human, plasma, oral, 50 mg, Patient 003 Dose 50 mg, 864 hr (Day 36), read-out: Concentration): 6.5 µM
concentration at 0 hr (human, plasma, oral, 50 mg, Patient 004 Dose 50 mg, 0 hr): 0.1 µM
concentration at 2 hr (human, plasma, oral, 50 mg, Patient 004 Dose 50 mg, 2 hr, read-out: Concentration): 19.9 µM
concentration at 4 hr (human, plasma, oral, 50 mg, Patient 004 Dose 50 mg, 4 hr, read-out: Concentration): 19.3 µM
concentration at 24 hr (human, plasma, oral, 50 mg, Patient 004 Dose 50 mg, 24 hr (Day 2), read-out: Concentration): 14.4 µM
concentration at 168 h [8]: 12.8 µM
concentration at 170 h [8]: 35.7 µM
concentration at 171 h [8]: 40.4 µM
concentration at 172 h [8]: 36 µM
concentration at 192 h (human, plasma, oral, 50 mg, Patient 004 Dose 50 mg, 192 hr (Day 9), read-out: Concentration): 22.5 µM
concentration at 336 hr (human, plasma, oral, 50 mg, Patient 004 Dose 50 mg, 336 hr (Day 15), read-out: Concentration): 21.8 µM
concentration at 338 hr (human, plasma, oral, 50 mg, Patient 004 Dose 50 mg, 338 hr, read-out: Concentration): 31.1 µM
concentration at 339 hr (human, plasma, oral, 50 mg, Patient 004 Dose 50 mg, 339 hr, read-out: Concentration): 38.8 µM
concentration at 340 hr (human, plasma, oral, 50 mg, Patient 004 Dose 50 mg, 340 hr, read-out: Concentration): 40.6 µM
concentration at 360 hr (human, plasma, oral, 50 mg, Patient 004 Dose 50 mg, 360 hr (Day 16), read-out: Concentration): 38.8 µM
concentration at 504 h [8]: 33.4 µM
concentration at 506 h [8]: 46.3 µM
concentration at 507 h [8]: 50.4 µM
concentration at 508 h (human, plasma, oral, 50 mg, Patient 004 Dose 50 mg, 508 hr, read-out: Concentration): 47.9 µM
concentration at 528 h (human, plasma, oral, 50 mg, Patient 004 Dose 50 mg, 528 hr (Day 23), read-out: Concentration): 50 µM
concentration at 672 hr (human, plasma, oral, 50 mg, Patient 004 Dose 50 mg, 672 hr (Day 29), read-out: Concentration): 52.3 µM
concentration at 674 hr (human, plasma, oral, 50 mg, Patient 004 Dose 50 mg, 674 hr, read-out: Concentration): 65.8 µM
concentration at 675 hr (human, plasma, oral, 50 mg, Patient 004 Dose 50 mg, 675 hr, read-out: Concentration): 61.7 µM
concentration at 676 hr (human, plasma, oral, 50 mg, Patient 004 Dose 50 mg, 676 hr, read-out: Concentration): 56.7 µM
concentration at 696 hr (human, plasma, oral, 50 mg, Patient 004 Dose 50 mg, 696 hr (Day 30), read-out: Concentration): 77.5 µM
concentration at 840 h [8]: 63 µM
concentration at 842 h [8]: 78.6 µM
concentration at 843 h [8]: 80.5 µM
concentration at 864 h (human, plasma, oral, 50 mg, Patient 004 Dose 50 mg, 864 hr (Day 37), read-out: Concentration): 81.1 µM
half-life (human, plasma, oral, 50 mg, after a single dose, 6 week sampling period, read-out: half-life of elimination): > 42 days
concentration at 0 h (human, plasma, oral, 100 mg, Patient 005 Dose 100 mg, 0 hr): 0.23 µM
concentration at 2 h (human, plasma, oral, 100 mg, Patient 005 Dose 100 mg, 2 hr, read-out: Concentration): 19.8 µM
concentration at 3 h [9]: 23 µM
concentration at 4 h (human, plasma, oral, 100 mg, Patient 005 Dose 100 mg, 4 hr, read-out: Concentration): 23.7 µM
concentration at 24 h (human, plasma, oral, 100 mg, Patient 005 Dose 100 mg, 24 hr (Day 2), read-out: Concentration): 19.9 µM
concentration at 168 h [9]: 19 µM
concentration at 170 h [9]: 42.9 µM
concentration at 171 h [9]: 50.8 µM
concentration at 172 h [9]: 45.7 µM
concentration at 192 h (human, plasma, oral, 100 mg, Patient 005 Dose 100 mg, 192 hr (Day 9), read-out: Concentration): 34.4 µM
concentration at 336 h (human, plasma, oral, 100 mg, Patient 005 Dose 100 mg, 336 hr (Day 15), read-out: Concentration): 47.8 µM
concentration at 338 h (human, plasma, oral, 100 mg, Patient 005 Dose 100 mg, 338 hr, read-out: Concentration): 80.2 µM
concentration at 339 h (human, plasma, oral, 100 mg, Patient 005 Dose 100 mg, 339 hr, read-out: Concentration): 70.1 µM
concentration at 340 h (human, plasma, oral, 100 mg, Patient 005 Dose 100 mg, 340 hr, read-out: Concentration): 53.9 µM
